pIC50, pKi: −log10 of the molar value.
Legend:
Mu-type opioid receptor [1] = target: T1, Mu-type opioid receptor (Homo sapiens, UniProt P35372); assay: Antagonist activity assessed as inhibition of loperamide-stimulated [35S]GTPgammaS binding to human mu opioid receptor expressed in CHO cells; type: functional, cell-based
[2] = target: T2, Kappa-type opioid receptor (Homo sapiens, UniProt P41145); assay: Displacement of [3H]diprenorphine from human cloned kappa opioid receptor expressed in CHO cells; type: cell-based
[3] = target: T3, Delta-type opioid receptor (Homo sapiens, UniProt P41143); assay: Displacement of [3H]diprenorphine from human cloned delta opioid receptor expressed in CHO cells; type: cell-based
Mu-type opioid receptor [4] = target: T1, Mu-type opioid receptor; assay: Displacement of [3H]diprenorphine from human cloned mu opioid receptor expressed in CHO cells; type: cell-based
[5] = target: T3, Delta-type opioid receptor; assay: Inhibition of [3H]diprenorphine binding to human cloned delta opioid receptor expressed in CHO cells at 10 uM; type: cell-based
[6] = target: T3, Delta-type opioid receptor; assay: Antagonist activity assessed as inhibition of BW373U86-stimulated [35S]GTP-gamma-S binding to human delta opioid receptor expressed in CHO cells; type: functional, cell-based
[7] = target: T2, Kappa-type opioid receptor; assay: Antagonist activity assessed as inhibition of U50488-stimulated [35S]GTP-gamma-S binding to human kappa opioid receptor expressed in CHO cells; type: functional, cell-based

T3 sequence (P41143 whole entry): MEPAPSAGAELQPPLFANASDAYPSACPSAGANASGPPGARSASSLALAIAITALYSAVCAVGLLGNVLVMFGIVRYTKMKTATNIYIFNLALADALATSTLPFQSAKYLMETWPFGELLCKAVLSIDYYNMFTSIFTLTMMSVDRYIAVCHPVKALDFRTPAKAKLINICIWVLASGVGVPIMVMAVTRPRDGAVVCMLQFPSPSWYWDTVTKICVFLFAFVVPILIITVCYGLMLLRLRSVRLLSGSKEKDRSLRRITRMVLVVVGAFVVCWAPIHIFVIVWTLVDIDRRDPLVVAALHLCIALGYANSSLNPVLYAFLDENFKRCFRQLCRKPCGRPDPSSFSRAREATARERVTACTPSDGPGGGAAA
T2 sequence (P41145 whole entry): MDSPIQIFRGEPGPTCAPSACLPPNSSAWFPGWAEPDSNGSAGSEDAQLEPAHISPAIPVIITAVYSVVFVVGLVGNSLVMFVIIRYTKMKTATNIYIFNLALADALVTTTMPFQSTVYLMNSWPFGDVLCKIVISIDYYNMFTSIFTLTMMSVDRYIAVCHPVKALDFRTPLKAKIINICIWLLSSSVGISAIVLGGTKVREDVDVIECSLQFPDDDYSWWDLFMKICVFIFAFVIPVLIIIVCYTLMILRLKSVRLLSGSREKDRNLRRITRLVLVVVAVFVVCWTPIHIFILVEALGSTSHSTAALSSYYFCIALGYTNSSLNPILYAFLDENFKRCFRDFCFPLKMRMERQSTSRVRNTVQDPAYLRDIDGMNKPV
T1 sequence (P35372 whole entry): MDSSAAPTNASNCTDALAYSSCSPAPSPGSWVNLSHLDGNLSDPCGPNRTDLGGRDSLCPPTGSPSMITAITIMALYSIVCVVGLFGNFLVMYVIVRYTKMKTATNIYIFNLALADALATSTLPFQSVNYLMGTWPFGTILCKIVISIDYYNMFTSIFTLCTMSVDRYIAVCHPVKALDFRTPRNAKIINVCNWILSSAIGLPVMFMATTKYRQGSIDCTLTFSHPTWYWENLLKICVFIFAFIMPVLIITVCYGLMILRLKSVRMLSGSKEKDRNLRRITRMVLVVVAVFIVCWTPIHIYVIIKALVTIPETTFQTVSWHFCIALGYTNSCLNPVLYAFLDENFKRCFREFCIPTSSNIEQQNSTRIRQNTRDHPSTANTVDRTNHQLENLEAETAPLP

| Structure (SMILES) | pIC50 (Mu-type opioid receptor [1]) | pKi [2] | pKi [3] | pKi (Mu-type opioid receptor [4]) | inhibition [5] [%] | pIC50 [6] | pIC50 [7] |
| --- | --- | --- | --- | --- | --- | --- | --- |
| C[C@H]1CN2CCN(Cc3ccsc3)C[C@H]2C[C@@]1(C)c1cccc(O)c1 | 8.85 | 7.42 | 6.47 | 8.52 |  |  |  |
| C[C@H]1CN2CCN(C(=O)Cc3ccccc3)C[C@H]2C[C@@]1(C)c1cccc(O)c1 | 8.17 | 6.27 | 7.15 | 7.77 |  |  |  |
| COC(=O)c1cccc(CN2CCN3C[C@H](C)[C@](C)(c4cccc(O)c4)C[C@@H]3C2)c1 | 8.16 | 6.85 |  | 7.96 | 43 |  |  |
| C[C@H]1CN2CCN(Cc3ccc(O)cc3)C[C@H]2C[C@@]1(C)c1cccc(O)c1 | 8.24 | 6.57 | 6.66 | 8.00 |  |  |  |
| C[C@H]1CN2CCN(Cc3ccccc3)C[C@H]2C[C@@]1(C)c1cccc(O)c1 | 9.14 | 7.37 |  | 8.92 |  | 6.82 | 8.08 |
| C[C@H]1CN2CCN(Cc3cccc(Oc4ccccc4)c3)C[C@H]2C[C@@]1(C)c1cccc(O)c1 | 8.01 | 7.62 |  | 7.68 | 55 |  |  |
| C[C@H]1CN2CCN(Cc3ccc4ccccc4c3)C[C@H]2C[C@@]1(C)c1cccc(O)c1 | 7.13 | 6.01 |  | 7.05 | 49 |  |  |
| C[C@H]1CN2CCN(CC3CCCCC3)C[C@H]2C[C@@]1(C)c1cccc(O)c1 | 8.96 | 7.08 | 7.19 | 8.96 |  | 7.07 | 7.44 |
| C[C@H]1CN2CCN(Cc3cccc(O)c3)C[C@H]2C[C@@]1(C)c1cccc(O)c1 | 8.35 | 7.25 | 6.51 | 8.37 |  |  |  |
| C[C@H]1CN2CCN(Cc3cccs3)C[C@H]2C[C@@]1(C)c1cccc(O)c1 | 9.20 | 7.43 | 6.59 | 8.85 |  | 6.47 | 8.18 |
| C[C@H]1CN2CCN(c3ccccc3)C[C@H]2C[C@@]1(C)c1cccc(O)c1 | 7.27 | 5.43 | 6.02 | 6.66 |  |  |  |
| C[C@H]1CN2CCN(Cc3ccccc3Cl)C[C@H]2C[C@@]1(C)c1cccc(O)c1 | 8.74 | 7.80 | 7.24 | 9.33 |  | 6.72 | 8.00 |
| Cc1ccc(CN2CCN3C[C@H](C)[C@](C)(c4cccc(O)c4)C[C@@H]3C2)cc1 | 8.02 | 6.52 | 6.46 | 7.85 |  |  |  |
| C[C@H]1CN2C[C@@H](Cc3ccccc3)NC[C@H]2C[C@@]1(C)c1cccc(O)c1 | 7.66 | 6.89 | 6.39 | 7.60 |  |  |  |
| C[C@H]1CN2CCN(Cc3ccccc3O)C[C@H]2C[C@@]1(C)c1cccc(O)c1 | 8.80 | 7.12 | 6.52 | 8.74 |  | 6.24 | 8.03 |
| C[C@H]1CN2CCN(C(=O)Nc3ccccc3)C[C@H]2C[C@@]1(C)c1cccc(O)c1 | 7.80 | 6.38 | 6.27 | 7.51 |  |  |  |
| C[C@H]1CN2C[C@H](c3ccccc3)NC[C@H]2C[C@@]1(C)c1cccc(C(N)=O)c1 | 8.82 | 7.96 | 7.22 | 8.74 |  | 6.96 | 8.64 |
| C[C@H]1CN2C[C@@H](c3ccccc3)NC[C@H]2C[C@@]1(C)c1cccc(O)c1 | 7.28 | 6.37 | 6.18 | 6.74 |  |  |  |
| C[C@H]1CN2C[C@H](c3ccccc3)N(Cc3ccccc3)C[C@H]2C[C@@]1(C)c1cccc(C(N)=O)c1 | 7.55 | 6.34 | 5.96 | 7.77 |  |  |  |
| C[C@H]1CN2C[C@H](c3ccccc3)N(Cc3ccccc3)C[C@H]2C[C@@]1(C)c1cccc(O)c1 | 7.40 | 6.92 | 6.47 | 8.33 |  | 5.89 | 7.00 |

| Structure (SMILES) | pIC50 (Mu-type opioid receptor [1]) | pKi [2] | pKi [3] | pKi (Mu-type opioid receptor [4]) | inhibition [5] [%] | pIC50 [6] | pIC50 [7] |
| --- | --- | --- | --- | --- | --- | --- | --- |
| CC(C)[C@H]1CN2C[C@H](C)[C@](C)(c3cccc(O)c3)C[C@@H]2CN1 | 7.18 | 7.24 |  | 6.42 | 15 |  |  |
| Cc1cccc(CN2CCN3C[C@H](C)[C@](C)(c4cccc(O)c4)C[C@@H]3C2)c1 | 8.82 | 6.89 | 6.29 | 8.89 |  |  |  |
| C[C@H]1CN2CCN(Cc3ccco3)C[C@H]2C[C@@]1(C)c1cccc(O)c1 | 8.14 | 6.37 | 5.82 | 8.13 |  |  |  |
| C[C@H]1CN2CCCN(Cc3ccccc3)C[C@H]2C[C@@]1(C)c1cccc(O)c1 | 7.82 | 6.27 | 5.54 | 6.80 |  |  |  |
| C[C@H]1CN2C[C@H](c3ccccc3)NC[C@H]2C[C@@]1(C)c1cccc(O)c1 | 8.96 |  |  |  |  | 7.01 | 8.49 |
| C[C@H]1CN2CCN(CCc3ccccc3)C[C@H]2C[C@@]1(C)c1cccc(O)c1 | 8.70 |  |  |  |  | 6.51 | 7.70 |
| C[C@H]1CN2C[C@H](c3ccccc3)CC[C@H]2C[C@@]1(C)c1cccc(O)c1 |  |  |  |  |  | 7.29 | 8.49 |
| CC(=O)N1C[C@H]2C[C@@](C)(c3cccc(O)c3)[C@@H](C)CN2C[C@@H]1c1ccccc1 | 6.66 | 6.21 |  | 7.03 | 57 |  |  |
| C[C@H]1CN2CCN(Cc3cccc(OCc4ccccc4)c3)C[C@H]2C[C@@]1(C)c1cccc(O)c1 | 7.66 | 7.48 |  | 7.89 | 43 |  |  |
| C[C@H]1CN2CCN(Cc3ccoc3)C[C@H]2C[C@@]1(C)c1cccc(O)c1 | 8.21 | 6.92 | 6.13 | 7.92 |  |  |  |
| C[C@H]1CN2C[C@H](c3ccccc3)N(C)C[C@H]2C[C@@]1(C)c1cccc(O)c1 |  | 7.89 | 5.64 |  |  | 6.24 | 8.62 |
| C[C@H]1CN2CCN(C(=O)c3ccccc3)C[C@H]2C[C@@]1(C)c1cccc(O)c1 | 8.68 | 6.74 |  |  |  | 7.85 | 7.30 |
| C[C@H]1CN2CCN(Cc3cccc4ccccc34)C[C@H]2C[C@@]1(C)c1cccc(O)c1 | 7.80 | 6.64 |  | 8.46 | 60 |  |  |
| C[C@H]1CN2CCN(Cc3ccccn3)C[C@H]2C[C@@]1(C)c1cccc(O)c1 | 7.89 | 6.41 | 5.96 | 7.70 |  |  |  |
| C[C@H]1CN2CCN(Cc3cccnc3)C[C@H]2C[C@@]1(C)c1cccc(O)c1 | 8.12 | 6.40 | 6.08 | 7.89 |  |  |  |
| C[C@H]1CN2C[C@H](Cc3ccccc3)NC[C@H]2C[C@@]1(C)c1cccc(O)c1 | 8.55 | 7.07 |  |  |  | 7.48 | 7.80 |
| C[C@H]1CN2CCN(Cc3cccc(Cl)c3)C[C@H]2C[C@@]1(C)c1cccc(O)c1 | 8.74 | 7.08 | 6.44 | 8.82 |  |  |  |
| C[C@H]1CN2CCN(Cc3ccc(Cl)cc3)C[C@H]2C[C@@]1(C)c1cccc(O)c1 | 7.38 | 6.55 | 6.38 | 7.77 |  |  |  |
| C[C@H]1CN2CCN(CCCc3ccccc3)C[C@H]2C[C@@]1(C)c1cccc(O)c1 | 7.89 | 6.02 | 6.02 | 7.44 |  |  |  |

Source: ChEMBL document CHEMBL1137297, “Synthesis and pharmacological evaluation of novel octahydro-1H-pyrido[1,2-a]pyrazine as mu-opioid receptor antagonists” (J Med Chem, 2006)
